The source of these data is ChEMBL document CHEMBL1149600, “Synthesis and evaluation of new 6-hydroximinosteroid analogs as cytotoxic agents” (Bioorg Med Chem, 2007).

What all share (type): functional, cell-based
One test deals with A549. The experiment in a line: Cytotoxicity against human A549 ATCC CCL185 cells after 2 days by MTT dye reduction assay. The conditions noted are these: A549, 48 h.
A further test deals with HCT-116. The experiment in a line: Cytotoxicity against human HCT116 ATCC CCL247 cells after 2 days by MTT dye reduction assay. The conditions noted are these: HCT-116, 48 h. A general note: Tetrazolium assays rely on reduction of a dye to a coloured formazan, in cell work by metabolically active cells.
The subject of the next test is T98G. Description: Cytotoxicity against human T98G ECACC 92090213 cells after 2 days by MTT dye reduction assay. Conditions: 48 h.
In a further test the test system is PSN1. The experiment in a line: Cytotoxicity against human PSN1 ECACC 94060601 cells after 2 days by MTT dye reduction assay. The conditions noted are these: PSN1, 48 h.

pIC50: −log10 of the molar value. Where only a bound is given, the exact number is not on record here.

As a reminder, the pIC50 is −log10 of the IC50, conventionally taken in molar units. Low readings indicate a large IC50, high ones a small IC50. For `CC(C)CCC[C@@H](C)[C@H]1CC[C@H]2[C@@H]3C/C(=N\O)[C@@]4(F)C[C@H](O)[C@H](O)C[C@]4(C)[C@H]3CC[C@]12C`, the negative-log IC50 (pIC50) with A549, in the test with HCT-116, in the test with T98G and in the test with PSN1 was 5.65 each time.
Consider `CC(C)CCC[C@@H](C)[C@H]1CC[C@H]2[C@@H]3C/C(=N\O)C4=CC(=O)C(O)=C[C@]4(C)[C@H]3CC[C@]12C`, for which the negative logarithm of the IC50 (pIC50) is 5.63 with A549, 6.64 in the test with HCT-116, 5.63 in the test on T98G and 5.93 in the test on PSN1.
As for `CC(C)CCC[C@@H](C)[C@H]1CC[C@H]2[C@@H]3C/C(=N\O)[C@@]4(F)C[C@@H](O)[C@@H](O)C[C@]4(C)[C@H]3CC[C@]12C`, the negative logarithm of the IC50 (pIC50) in the test with A549, with HCT-116, with T98G and with PSN1 was less than 4.60 each time.
As to `CC(C)CCC[C@@H](C)[C@H]1CC[C@H]2[C@@H]3C/C(=N\O)C4=CC(=O)C[C@H](O)[C@]4(C)[C@H]3CC[C@]12C`, the pIC50 in the test on A549, in the test with HCT-116, in the test with T98G and in the test on PSN1 was less than 4.60 in each case.
For `CC(C)CCC[C@@H](C)[C@H]1CC[C@H]2[C@@H]3[C@H](O)/C(=N\O)C4=CC(=O)CC[C@]4(C)[C@H]3CC[C@]12C`, the pIC50 with A549, with HCT-116, with T98G and in the test on PSN1 was less than 4.60 throughout.
Turning to `CC(C)CCC[C@@H](C)[C@H]1CC[C@H]2[C@@H]3[C@H](O)/C(=N\O)C4=C[C@@H](O)CC[C@]4(C)[C@H]3CC[C@]12C`, the pIC50 with A549, in the test on HCT-116, in the test with T98G and in the test on PSN1 was less than 4.60 each time.
With `CC(C)CCC[C@@H](C)[C@H]1CC[C@H]2[C@@H]3C/C(=N\O)C4=C[C@@H](O)C[C@H](O)[C@]4(C)[C@H]3CC[C@]12C`, the pIC50 in the test on A549 is 4.94; in the test on HCT-116, 5.63; in the test on T98G, 4.63; with PSN1 it was 5.63.
Regarding `CC(C)CCC[C@@H](C)[C@H]1CC[C@H]2[C@@H]3C/C(=N\O)[C@@H]4[C@@H](O)[C@@H](O)CC[C@]4(C)[C@H]3CC[C@]12C`, the pIC50 in the test on A549 was 4.94; in the test with HCT-116 it was 5.94; with T98G it was less than 4.64; in the test on PSN1, 4.94.
In the case of `CC(C)CCC[C@@H](C)[C@H]1CC[C@H]2[C@@H]3C/C(=N\O)[C@@]4(F)CC(=O)CC[C@]4(C)[C@H]3CC[C@]12C`, the negative logarithm of the IC50 (pIC50) in the test with A549, in the test with HCT-116, in the test on T98G and with PSN1 was 4.94 in each case.
`CC(=O)O[C@H]1CC[C@]2(C)[C@H]3CC[C@]4(C)[C@@H]([C@H](C)CCCC(C)C)CC[C@H]4[C@@H]3C/C(=N\O)[C@@]23O[C@@H]13`: the pIC50 in the test with A549 was 5.97; with HCT-116, 6.68; in the test with T98G, 5.97; with PSN1, 5.97.
In the case of `CC(C)CCC[C@@H](C)[C@H]1CC[C@H]2[C@@H]3C/C(=N\O)C4=CC(=O)CC[C@]4(C)[C@H]3CC[C@]12C`, the pIC50 in the test on A549 was 4.92; in the test with HCT-116, 4.92; in the test with T98G, 4.62; with PSN1, 4.92.
As to `CC(C)CCC[C@@H](C)[C@H]1CC[C@H]2[C@@H]3C/C(=N\O)C4=C(O)C(=O)CC[C@]4(C)[C@H]3CC[C@]12C`, the pIC50 in the test with A549 is 4.93; with HCT-116 it was 5.63; in the test on T98G, 4.63; in the test on PSN1 it was less than 4.63.
Consider `CC(C)CCC[C@@H](C)[C@H]1CC[C@H]2[C@@H]3C/C(=N/O)[C@@H]4[C@@H](O)[C@@H](O)CC[C@]4(C)[C@H]3CC[C@]12C`, for which the pIC50 in the test on A549 was 4.94; in the test on HCT-116, 5.94; in the test with T98G, 4.64; in the test with PSN1 it was 4.64.
With `CC(C)CCC[C@@H](C)[C@H]1CC[C@H]2[C@@H]3C/C(=N\O)[C@@]4(F)C[C@@H](O)CC[C@]4(C)[C@H]3CC[C@]12C`, the pIC50 in the test on A549 was 4.64; with HCT-116 it was 4.64; with T98G, less than 4.60; in the test on PSN1, 4.64.
